Assay results reported in patent US20130217723A1, “Pharmaceutical Composition Combining Tenatoprazole and an Anti-Inflammatory Agent” (priority 2002, published 2013).
Where two headings read alike, the source gives them in different places.

Experiments:
[1] = patients under treatment; cited from earlier work
[2] = Phase I pharmacokinetic study of oral tenatoprazole, single dose and daily dose for 7 days; assay type: in vivo, human (Caucasian individuals); settings: for half-life: human, plasma, oral, depending on the dose (10-80 mg), read-out: mean elimination half-lives
Protocol: The doses tested were 10, 20, 40 and 80 mg of tenatoprazole.
In this table, the abbreviations employed have the following meanings: • Cmax maximum concentration • Tmax time required to attain maximum concentration • T1/2 elimination half-life • AUC0-t area under the curve, between time 0 and the last measurable concentration.

Row | half-life ([2]; after a single dose) | half-life ([2]; after administration for seven days) | Cmax, AUC0-t and AUC0-inf values versus dose ([2]; single or repeated administration, AUC0-inf calculated by extrapolation) | Structure (SMILES) | percentage of minor disorders observed in patients: dyspeptic symptoms [1] | percentage of minor disorders observed in patients: gastric pain [1] | percentage of minor disorders observed in patients: nausea [1] | plasma half-life/pump regeneration time ratio ([2]; compared with other proton pump inhibitors)
1 |  |  |  | Cc1ccc(-c2cc(C(F)(F)F)nn2-c2ccc(S(N)(=O)=O)cc2)cc1 [celecoxib] | 4.8% | 4.8% | 2.4% | 
2 | 5 to 6 h | 5 to 9.5 h | increased in a linear fashion | COc1ccc2[nH]c([S+]([O-])Cc3ncc(C)c(OC)c3C)nc2n1 (stereo not shown) [tenatoprazole, 5-methoxy-2-[[(4-methoxy-3,5-dimethyl-2-pyridyl)methyl]sulfinyl]imidazo[4,5-b]pyridine] |  |  |  | notably higher than that seen with other proton pump inhibitors
